Tests used:
human DHODH = target: T1, human DHODH (Homo sapiens, UniProt Q02127); assay: DHODH Enzymatic Assay; type: biochemical; conditions: purified human DHODH; DCIP absorbance, end-point mode
T1 construct: purchased Proteros PR-0044
Description: To detect DHODH enzyme activities, dichloroindophenol (DCIP) is added as the final electron acceptor in the assay. DCIP can accept electrons from the reduced coenzyme Q generated in the assay, or from dihydroorotate (DHO) via FMN by binding presumably to the ubiquinone pocket. […] The assay buffer contained […], pH 7.5, 150 mM NaCl, 0.5 mM EDTA, and 0.1% Triton X-100 in MilliQ water. Substrate consisting of 20 mM DHO, 5 mM CoQ6, and 1 mM DCIP in assay buffer, initiates the reaction. […] Absorbance measurements were obtained using the BMG Phera Star plate-reading spectrophotomer. Purified human DHODH was purchased from Proteros (cat. No. PR-0044). Chemicals were purchased from Sigma-Aldrich, Teknova, and Avanti Polar Lipids. Liquid handling was performed using Labcyte Echo and Formulatrix Tempest.

MOLM-13 cells = assay: MOLM-13 Cellular Assay; type: cell-based; conditions: Homo sapiens, 72 hours exposure, cell viability by CellTiter-Glo
Description: The day prior to assay set-up, cells were pelleted, resuspended in fresh media, counted, and cells were plated at 0.4×10^6 cell/mL in a T150 flask. […] Cells were exposed to different concentrations of test compounds at 37° C., 5% CO2 for 72 hours immediately after seeding.

T1 sequence (Q02127 whole entry): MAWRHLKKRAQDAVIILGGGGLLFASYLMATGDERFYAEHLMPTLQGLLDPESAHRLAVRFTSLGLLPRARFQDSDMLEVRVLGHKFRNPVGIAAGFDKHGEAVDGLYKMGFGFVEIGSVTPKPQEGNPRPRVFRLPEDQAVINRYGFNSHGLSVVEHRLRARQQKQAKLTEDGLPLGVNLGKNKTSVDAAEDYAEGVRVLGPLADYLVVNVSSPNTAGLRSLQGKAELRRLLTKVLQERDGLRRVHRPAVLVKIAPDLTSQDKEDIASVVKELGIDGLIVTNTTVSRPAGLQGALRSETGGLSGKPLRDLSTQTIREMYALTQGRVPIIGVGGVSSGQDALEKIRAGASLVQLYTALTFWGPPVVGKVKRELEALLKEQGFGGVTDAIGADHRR

| EC50 (human DHODH) [nM] | EC50 (MOLM-13 cells) [nM] | SMILES |
| --- | --- | --- |
| 1.5 | 445 | CCn1c(CO)nn(-c2nc(O[C@@H](C)C(F)(F)F)c(C(=O)Nc3c(Cl)c[nH]c(=O)c3Cl)cc2F)c1=O [Example 22, (S)-N-(3,5-Dichloro-2-oxo-1H-pyridin-4-yl)-6-[4-ethyl-3-(hydroxymethyl)-5-oxo-1,2,4-triazol-1-yl]-5-fluoro-2-[(1S)-2,2,2-trifluoro-1-methyl-ethoxy]pyridine-3-carboxamide] |
| 13.6 | 90 | CCn1c(CO)nn(-c2nc(O[C@@H](C)C(F)(F)F)c(C(=O)Nc3[nH]c(=O)ccc3Cl)cc2F)c1=O [Example 23, (S)-N-(3-chloro-6-oxo-1,6-dihydropyridin-2-yl)-6-(4-ethyl-3-(hydroxymethyl)-5-oxo-4,5-dihydro-1H-1,2,4-triazol-1-yl)-5-fluoro-2-((1,1,1-trifluoropropan-2-yl)oxy)nicotinamide] |
| 10.8 | 10.1 | CCn1c(CO)nn(-c2nc(O[C@@H](C)C(F)(F)F)c(C(=O)Nc3ccnc(OC)c3Cl)cc2F)c1=O [Example 24, (S)-N-(3-Chloro-2-methoxypyridin-4-yl)-6-(4-ethyl-3-(hydroxymethyl)-5-oxo-4,5-dihydro-1H-1,2,4-triazol-1-yl)-5-fluoro-2-((1,1,1-trifluoropropan-2-yl)oxy)nicotinamide] |
| 0.84 | 3 | CCn1c(CO)nn(-c2nc(O[C@@H](C)C(F)(F)F)c(C(=O)Nc3c(C)n[nH]c3Cl)cc2F)c1=O [Example 25, (S)-N-(5-Chloro-3-methyl-1H-pyrazol-4-yl)-6-(4-ethyl-3-(hydroxymethyl)-5-oxo-4,5-dihydro-1H-1,2,4-triazol-1-yl)-5-fluoro-2-((1,1,1-trifluoropropan-2-yl)oxy)nicotinamide] |
| 108 | > 100 | CCn1c(CO)nn(-c2nc(O[C@@H](C)C(F)(F)F)c(C(=O)Nc3snc(C)c3Cl)cc2F)c1=O [Example 26, (S)-N-(4-Chloro-3-methylisothiazol-5-yl)-6-(4-ethyl-3-(hydroxymethyl)-5-oxo-4,5-dihydro-1H-1,2,4-triazol-1-yl)-5-fluoro-2-((1,1,1-trifluoropropan-2-yl)oxy)nicotinamide] |
| 4.7 | 7.7 | CCn1c(CO)nn(-c2nc(O[C@@H](C)C(F)(F)F)c(C(=O)Nc3cnccc3Cl)cc2F)c1=O [Example 27, (S)-N-(4-Chloropyridin-3-yl)-6-(4-ethyl-3-(hydroxymethyl)-5-oxo-4,5-dihydro-1H-1,2,4-triazol-1-yl)-5-fluoro-2-((1,1,1-trifluoropropan-2-yl)oxy)nicotinamide] |
| 2.3 | 4.7 | CCn1c(CO)nn(-c2nc(O[C@@H](C)C(F)(F)F)c(C(=O)Nc3c(F)cncc3Cl)cc2F)c1=O [Example 28, (S)-N-(3-Chloro-5-fluoropyridin-4-yl)-6-(4-ethyl-3-(hydroxymethyl)-5-oxo-4,5-dihydro-1H-1,2,4-triazol-1-yl)-5-fluoro-2-((1,1,1-trifluoropropan-2-yl)oxy)nicotinamide] |
| 2.5 | 4.4 | CCn1c(CO)nn(-c2nc(O[C@@H](C)C(F)(F)F)c(C(=O)Nc3c(F)cncc3C#N)cc2F)c1=O [Example 29, (S)-N-(3-Cyano-5-fluoropyridin-4-yl)-6-(4-ethyl-3-(hydroxymethyl)-5-oxo-4,5-dihydro-1H-1,2,4-triazol-1-yl)-5-fluoro-2-((1,1,1-trifluoropropan-2-yl)oxy)nicotinamide] |
| 1.2 | 1.3 | CCn1c(CO)nn(-c2nc(O[C@@H](C)C(F)(F)F)c(C(=O)Nc3c(F)cnc(OC)c3Cl)cc2F)c1=O [Example 30, (S)-N-(3-Chloro-5-fluoro-2-methoxypyridin-4-yl)-6-(4-ethyl-3-(hydroxymethyl)-5-oxo-4,5-dihydro-1H-1,2,4-triazol-1-yl)-5-fluoro-2-((1,1,1-trifluoropropan-2-yl)oxy)nicotinamide] |

Reference: patent publication US20220089568A1 (Janssen Biotech, Inc., priority 2019, published 2022)
